Assay results taken from US20130337564A1, “Treatment of Pluripotent Cells” (Janssen Biotech, Inc., priority 2012, published 2013).
Values joined by “and” are separate entries in the source; they are usually repeats but may differ in a detail not shown here. Identical values can stand only once.

Columns and labels:
[1] = tested on: human embryonic stem cells (H9 line); assay: High content screening assay: cell number (proliferative response); assay type: cell-based; settings: for fold induction at 10 µM: Homo sapiens, Embryonic stem cell, read-out: Proliferative Response, Fold over Wnt 3a/AA control
Outline: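 H9 hESCs on MATRIGEL treated days 1-2 with 10 μM compound in DMEM:F12, 0.5% FCS, 100 ng/ml activin A; days 3-4 with 2% FCS plus activin A without compound. Fixed cells immunostained for Sox17 or HNF-3beta with Draq5 nuclear counterstain. Cell number and staining intensity quantified by high-content imaging, 12 fields/well.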

[2] = tested on: human embryonic stem cells (H9 or H1 lines); assay: Plate reader (MTS) proliferation assay; assay type: cell-based; settings: for % Control Value (proliferation) / activity at 10 µM: 10 μM test compound with 100 ng/ml activin A on days 1-2, MTS OD490 on day 4, vs Activin A/Wnt3a positive control, strong and moderate hits; for Average: average of replicate raw data; for Raw Data: replicate wells, plate reader proliferation screen of GSK-3B inhibitors; for activity at 10 µM: Homo sapiens, Embryonic stem cell, 96 h
Outline: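 H9 or H1 cells on Matrigel, washed, then given DMEM:F12 with 0.5% FCS, 100 ng/ml activin A and 10 μM compound (days 1–2), then 2% FCS plus activin A (days 3–4). MTS added day 4, OD490 read after 1.5–4 h at 37 °C; triplicates as percent of activin A/Wnt3a control.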

[3] = 10 μM test compound with 100 ng/ml activin A on days 1-2, H9, total cell number by IN Cell Analyzer, strong and moderate hits
[4] = cell number in the wells analysed for HNF-3b expression
[5] = cell number in the wells analysed for HNF-3b expression, normalised to Wnt 3a/AA control
[6] = cell number in the wells analysed for SOX-17 expression
[7] = cell number in the wells analysed for SOX-17 expression, normalised to Wnt 3a/AA control

Structure (SMILES) | Proliferative Response Fold over Wnt 3a/AA control [1, 3] | Proliferative Response Total cells [1, 4] | Proliferative Response Fold over Wnt 3a/AA control [1, 5] [fold] | Proliferative Response Total cells [1, 6] | Proliferative Response Fold over Wnt 3a/AA control [1, 7] [fold] | % Control Value (proliferation) [2] [%] | Average [2] | Raw Data [2] | fold induction at 10 µM [1, 3] | activity at 10 µM [2] [%]
O=C1NC(=O)C2=C1c1cn(c3ccccc13)CCOCCOCCOCCOCCn1cc2c2ccccc21 [Compound 165, 10,11,13,14,16,17,19,20,22,23-Decahydro-1H-9,4:24,29-di(metheno)dibenzo[n,t]pyrrolo[3,4-q][1,4,7,10,13,22]tetraoxadiazacyclotetracosine-1,3(2H)-dione] | 5.8846 Fold over Wnt 3a/AA control | 7460 | 5.885 | 2899 | 1.736 | 195.3 | 1.8175 | 1.7896 and 1.4721 and 2.1908 | – | –
CN(C)c1ccc(-n2cc(C3=C(c4nn(CCO)c5ccccc45)C(=O)NC3=O)c3cc(Cl)ccc32)cn1 [Compound 148, 3-{5-Chloro-1-[6-(dimethylamino)pyridin-3-yl]-1H-indol-3-yl}-4-[1-(2-hydroxyethyl)-1H-indazol-3-yl]-1H-pyrrole-2,5-dione] | – | 6536 | – | 12243 | – | – | 1.4937 | – | 0.799 | 106
O=C1NC(=O)C(c2cn(CCCO)c3ncccc23)=C1c1cn(CCO)cn1 [Compound 183, 3-[1-(2-Hydroxyethyl)-1H-imidazol-4-yl]-4-[1-(3-hydroxypropyl)-1H-pyrrolo[2,3-b]pyridin-3-yl]-1H-pyrrole-2,5-dione] | – | 5 | – | 7 | – | – | 0.2321 | – | – | –
O=C1NC(=O)C(c2cn(CCCO)c3ncccc23)=C1c1ccn(CCCO)n1 [Compound 185, 3-[1-(3-Hydroxypropyl)-1H-pyrazol-3-yl]-4-[1-(3-hydroxypropyl)-1H-pyrrolo[2,3-b]pyridin-3-yl]-1H-pyrrole-2,5-dione] | – | – | – | – | – | – | 0.2632 | – | 0.944 | –
CN(C)CCCn1cc(C2=C(c3cccc4ccccc34)C(=O)NC2=O)c2cccnc21 [Compound 175, 3-{1-[3-(Dimethylamino)propyl]-1H-pyrrolo[2,3-b]pyridin-3-yl}-4-naphthalen-1-yl-1H-pyrrole-2,5-dione] | – | 42 | – | 1 | – | – | 0.1467 | – | – | –
Cn1cc(C2=C(c3nn(CCCn4ccnc4)c4ccccc34)C(=O)NC2=O)c2cc(Cl)ccc21 [Compound 231, 3-(5-Chloro-1-methyl-1H-indol-3-yl)-4-{1-[3-(1H-imidazol-1-yl)propyl]-1H-indazol-3-yl}-1H-pyrrole-2,5-dione] | – | 11369 | – | 13789 | – | – | 1.6020 | – | 0.9 | 114
O=C1NC(=O)C2=C1c1cn(c3ccccc13)CCOCCOCCOCCn1cc2c2ccccc21 [Compound 163, 6,7,9,10,12,13,15,16-Octahydro-23H-5,26:17,22-di(metheno)dibenzo[k,q]pyrrolo[3,4-n][1,4,7,10,19]trioxadiazacyclohenicosine-23,25(24H)-dione] | – | 5485 | 4.327 | 1313 | 0.7864 | 142.3 | 1.3242 | 1.3764 and 1.2753 and 1.3208 | – | –
